{"source": "patent US8962657B2", "about": "“Aryl derivatives and uses thereof” (Jacobus Pharmaceutical Company, Inc., priority 2012, dated 2015)", "key": {"[1]": {"tested_on": "P. falciparum strain W2 (resistant to chloroquine and pyrimethamine)", "assay": "[3H]-hypoxanthine growth inhibition assay, P. falciparum W2", "type": "cell-based", "details": "Plasmodium falciparum", "protocol": "(§1) The potential for antimalarial activity against Plasmodium falciparum was determined by measuring the incorporation of tritiated hypoxanthine into parasitized red blood cells.\n(§2) Stock solutions of the test compounds and the reference drug chloroquine (CQ) (Sigma Chemicals C-6628, Lot #059H0919) were prepared in silanized glass vials with AquaSil™ (Pierce, USA) to minimize absorption of the compounds to glassware. All test compounds were dissolved in DMSO (Sigma Cat No. # D8418) to 1 mM concentration, whereas CQ was dissolved in 50% methanol at a concentration of 1.6 mg/ml (base). Stock solutions were stored at −20° C.\n(§3) The P. falciparum laboratory adapted strains utilized in this project (Table 1) were in vitro cultured and routinely maintained in RPMI-1640-LPLF complete medium, which contained low concentrations of para-amino benzoic acid (0.0005 mg/L) and folic acid (0.01 mg/L).\n(§4) The low concentration of folic acid in RPMI-1640-LPLF prevents inhibition of the compound if its activity targets the parasite's folate metabolic pathway. Parasites were cultured in human red blood cells (RBCs) in vitro at 37° C. in special gas mixture (5% O2, 5% CO2 and 90% N2) as described Trager and Jensen (1979 Science 193:673-675).\n(§5) Base cultivation medium consisted of 10.4 g/L RPMI-1640-LPLF powder (Gibco BRL), 5.97 g/L HEPES buffer (MP Biomedicals, USA), 2.0 g/L D-glucose (BDH chemicals, Australia), 0.05 g/L hypoxanthine (Sigma, USA) and 40 mg/L gentamycin (Pfizer, Australia). The pH of the medium was adjusted to 6.9 and the solution was filtered using 0.2 μm pore size (AcroCap, Gelman Science, USA). […] For [^3H]-hypoxanthine inhibition growth assay, RPMI-1640-LPLF complete medium which lacked [^3H]-hypoxanthine ([^3H]-RPMI-1640-LPLF) was used to prevent uptake of hypoxanthine by parasites, as radioactive hypoxanthine uptake is measured as a surrogate marker of growth. […]\n(§6) Red blood cells (RBC) were required for P. falciparum parasites to proliferate in vitro. […] Following the final wash, the haematocrit was measured as the percent of RBC to total culture volume. […]"}, "[2]": {"tested_on": "P. falciparum strain D6 (sensitive to chloroquine and pyrimethamine)", "assay": "[3H]-hypoxanthine growth inhibition assay, P. falciparum D6", "type": "cell-based", "details": "Plasmodium falciparum", "protocol": "as §1, §2, §3, §4, §5, §6"}, "[3]": {"tested_on": "Plasmodium berghei (KBG-173 strain)", "assay": "Plasmodium berghei assay in vivo (modified Thompson Test), survival of infected mice", "design": "species or system Charles River CD-1 mice", "details": "for Average Days Survival: 31 day experiment", "protocol": "In vivo antimalarial activity was tested in male or female Charles River CD-1 mice that were 4-5 weeks old and weighed 20-25 g They were housed in groups of 3 or 4 in standard plastic cages with wire tops, Bed-o-cob® bedding, 12 hr/day of light, and maintained at 75° F. They were fed a standard Ralston Purina mouse chow and the cages and bottles were changed twice a week. Test compounds were ground in a mortar and pestle and diluted with enough vehicle to give a volume of 10 mL/kg of mouse weight. The oral doses were prepared in 0.5% hydroxyethylcellulose (Union Carbide Corp. WP 4400)/0.1% Tween-80 (Fisher Scientific T164-500). The amount of drug was calculated on the free base weight. The mice were infected intraperitoneally on day 0 with 5×10^4 erythrocytes parasitized with Plasmodium berghei (KBG-173 strain) from a donor mouse having a parasitemia between 5-10%. On days 3, 4 and 5 the test compounds were administered bid, spaced 6 hr apart, by oral gavage to the mice. Activity was measured by survival, with full activity defined as all animals living at day 31. Partial activity is defined as days of increased survival versus the infected non-treated controls. This in vivo model is a modification of the Thompson Test. For further description see Ager, A. L, Jr. Rodent Malaria Models. In Handbook of Experimental Pharmacology: Antimalarial Drugs. 1. 68/1; Peters, W., Richards, W. H. G., Eds.: Springer-Verlag: Berlin, 1984, pp. 231-33."}, "[4]": {"details": "P. falciparum W2, [3H]-hypoxanthine incorporation, read-out: W2 IC50"}, "[5]": {"details": "P. falciparum D6, [3H]-hypoxanthine incorporation, read-out: D6 IC50"}, "[6]": {"details": "4 mg/kg/day, oral bid on days 3, 4 and 5"}, "[7]": {"details": "16 mg/kg/day, oral bid on days 3, 4 and 5"}, "[8]": {"details": "Plasmodium berghei, 744 h, 16 mg/kg/day, oral bid on days 3, 4 and 5, read-out: Number of mice alive at day 31 (converted)"}, "[9]": {"details": "64 mg/kg/day, oral bid on days 3, 4 and 5"}, "[10]": {"details": "Plasmodium berghei, po, 744 h, read-out: Number of mice alive at day 31"}}, "note": "Read-outs that look alike come from different tables or passages of the source. Marks after values point to notes of the source that are not given here.", "data": [{"smiles": "CC(C)(C)NCc1cc(C(C)(C)C)cc(-c2ccc(Cl)c(C(F)(F)F)c2)c1O.Cl", "note": "[Example 23, 5-(tert-Butyl)-3-((tert-butylamino)methyl)-4′-chloro-3′-(trifluoromethyl)-[1,1′-biphenyl]-2-ol hydrochloride]", "values": [{"measurement": "IC50", "setting": "[1]; [4]", "result": 9, "unit": "nM"}, {"measurement": "IC50", "setting": "[2]; [5]", "result": 21, "unit": "nM"}, {"measurement": "Average Days Survival", "setting": "[3]; 1 mg/kg/day, oral bid on days 3, 4 and 5", "result": ">15.3", "unit": "days"}, {"measurement": "Average Days Survival", "setting": "[3]; 2 mg/kg/day, oral bid on days 3, 4 and 5", "result": ">7", "unit": "days"}, {"measurement": "Average Days Survival", "setting": "[3]; [6]", "result": ">31* Days"}, {"measurement": "Average Days Survival", "setting": "[3]; 8 mg/kg/day, oral bid on days 3, 4 and 5", "result": ">31* Days"}, {"measurement": "Average Days Survival", "setting": "[3]; [7]", "result": ">31* Days"}, {"measurement": "Average Days Survival", "setting": "[3]; 32 mg/kg/day, oral bid on days 3, 4 and 5", "result": ">31* Days"}, {"measurement": "responders at 1 mg/kg", "setting": "[3]; Plasmodium berghei, 744 h, 1 mg/kg/day, oral bid on days 3, 4 and 5, read-out: Number of mice alive at day 31 (converted)", "result": 42.9, "unit": "%"}, {"measurement": "responders at 2 mg/kg", "setting": "[3]; Plasmodium berghei, 744 h, 2 mg/kg/day, oral bid on days 3, 4 and 5, read-out: Number of mice alive at day 31 (converted)", "result": 85.7, "unit": "%"}, {"measurement": "responders at 4 mg/kg", "setting": "[3]; Plasmodium berghei, 744 h, 4 mg/kg/day, oral bid on days 3, 4 and 5, read-out: Number of mice alive at day 31 (converted)", "result": 100, "unit": "%"}, {"measurement": "responders at 8 mg/kg", "setting": "[3]; Plasmodium berghei, 744 h, 8 mg/kg/day, oral bid on days 3, 4 and 5, read-out: Number of mice alive at day 31 (converted)", "result": 100, "unit": "%"}, {"measurement": "responders at 16 mg/kg", "setting": "[3]; [8]", "result": 100, "unit": "%"}, {"measurement": "responders at 32 mg/kg", "setting": "[3]; Plasmodium berghei, 744 h, 32 mg/kg/day, oral bid on days 3, 4 and 5, read-out: Number of mice alive at day 31 (converted)", "result": 100, "unit": "%"}]}, {"smiles": "CC(C)(C)NCc1cc(-c2ccc(Cl)cc2)nc(-c2ccc(Cl)cc2)c1O.Cl", "note": "[Example 56, 4-((tert-Butylamino)methyl)-2,6-bis(4-chlorophenyl)pyridin-3-ol hydrochloride]", "values": [{"measurement": "IC50", "setting": "[1]; [4]", "result": 12, "unit": "nM"}, {"measurement": "IC50", "setting": "[2]; [5]", "result": 32, "unit": "nM"}, {"measurement": "Average Days Survival", "setting": "[3]; [7]", "result": ">19.3", "unit": "days"}, {"measurement": "Average Days Survival", "setting": "[3]; [9]", "result": ">20", "unit": "days"}, {"measurement": "responders at 16 mg/kg", "setting": "[3]; [8]", "result": 71.4, "unit": "%"}, {"measurement": "responders at 64 mg/kg", "setting": "[3]; Plasmodium berghei, 744 h, 64 mg/kg/day, oral bid on days 3, 4 and 5, read-out: Number of mice alive at day 31 (converted)", "result": 85.7, "unit": "%"}]}, {"smiles": "CCN(CC)CCCC(C)Nc1ccnc2cc(Cl)ccc12", "note": "(stereo not drawn) [Chloroquine, chloroquine, reference compound]", "values": [{"measurement": "IC50", "setting": "[1]; W2, read-out: W2 IC50", "result": 133, "unit": "nM"}, {"measurement": "IC50", "setting": "[2]; D6, read-out: D6 IC50", "result": 12, "unit": "nM"}, {"measurement": "Average Days Survival", "setting": "[3]; [6]", "result": 10.3, "unit": "days"}, {"measurement": "Average Days Survival", "setting": "[3]; [7]", "result": ">18.8", "unit": "days"}, {"measurement": "Average Days Survival", "setting": "[3]; [9]", "result": ">18.6", "unit": "days"}, {"measurement": "Average Days Survival", "setting": "[3]; 128 mg/kg/day, oral bid on days 3, 4 and 5", "result": ">21.3", "unit": "days"}, {"measurement": "responders at 4 mg/kg", "setting": "[3]; [10]", "result": 0, "unit": "%"}, {"measurement": "responders at 16 mg/kg", "setting": "[3]; [10]", "result": 14.3, "unit": "%"}, {"measurement": "responders at 64 mg/kg", "setting": "[3]; [10]", "result": 28.6, "unit": "%"}, {"measurement": "responders at 128 mg/kg", "setting": "[3]; [10]", "result": 57.1, "unit": "%"}]}]}
